For data set [1], the target named is hepatitis C virus NS3 helicase (Hepatitis C virus genotype 1a, UniProt P27958). The note with it: dose-response relationship, cited from earlier work.
Data set [2] deals with skin (SK-MEL-2) cancer cell line. The note with it: cited from earlier work.
The test system of data set [3] is human lung (A549) cancer cell line. The following applies: cited from earlier work.
For the next data set, the system named is naïve CD4+ CD25− T cells. Briefly: Conversion of CD4+CD25− T cells into CD4+FoxP3+ Tregs in vitro. It counts as cell-based. As to the method:
To assess the effect of psammaplin A on the generation of Tregs, naïve CD4+ CD25− T cells were cultured with mitomycin C treated APCs plus IL-2, TGFβ and anti-CD3 in the presence or absence of psammaplin A and numbers of CD4^+ FoxP3^+ Tregs were determined by FACS after 72 h. The RNA was isolated from cell lysate, and reverse transcribed to cDNA for RT-qPCR analysis using Taqman primer probes. Expression of genes encoding Foxp3 was normalized to HPRT expression and was calibrated relative to vehicle group.
The procedure under “Conversion of CD4+CD25− T cells into CD4+FoxP3+ Tregs in vitro” was followed. The frequencies of CD4+FoxP3+ Tregs were determined by FACS after 72 h (FIG. 3A and 3B).

The subject of data set [4] is IDO1 expression in THP-1 cells. Briefly: Induction of IDO1 in THP-1 cells (RT-qPCR). It counts as cell-based, human. The note with it: for IDO1 expression (fold change): 96 hours, vs DMSO control. As to the method:
THP-1 cells were harvested from appropriate number of T75 flasks. Cells were counted in a Bürker chamber, stained with 0.4% Trypan Blue. The appropriate number of cells for each experiment were transferred to a new tube and centrifuged at 1200 rpm, 5 min at room temperature (RT). The supernatant was discarded and fresh RPMI with 5% FBS was added to get a cell concentration of 2×10^5 cells/mL. The compound was added to the five separate wells in 6-well plates such that five different final concentrations were obtained after adding the cells. A control was added to one well in the 6-well plate to which cells were added. 1×10^6 cells per well were seeded out to achieve a total volume of 5 mL per well. The cells were incubated at 37° C. in 5% CO2 for 96 hours. After 96 hours the assay was stopped and the cells were lysed for the isolation of RNA.
Total RNA was extracted from THP-1 cells using the RNA RNeasy Mini extraction kit (Qiagen), according to the manufacturer's instructions. A SuperScript® VILO™ RT-kit (Thermo Fisher) was used to reverse transcribe 1 μg of total RNA to cDNA and qPCR was performed. The primers used for amplification of the human IDO1 gene were 5″-[…]-3″ (forward; SEQ ID No. 1) and 5″-[…]-3″ (reverse; SEQ ID No. 2). The primers used for amplification of the endogenous reference gene for human HPRT1 were 5″-[…]-3″ (forward; SEQ ID No. 3) and 5″-[…]-3″ (reverse; SEQ ID No. 4). In brief, RT-qPCR was performed in 20 μl reaction, consisting 10 μl PowerUp SYBR Green Master Mix, 0.5 μM of each primer, 4 μl diluted cDNA for amplification of IDO1 and 1.5 μl diluted cDNA for amplification of HPRT1. An iCycler iQ real-time detection system (Stratagene, Mx3000P, La Jolla, Calif., USA) with the following thermal profile: UDG incubation at 50° C. for 2 min, then denaturation at 95° C. for 5 min, followed by 45 cycles at 94° C. for 15 s, 58° C. for 30 s, and 60° C. for 30 s, was used to perform thermocycling and real-time detection of PCR products. After amplification a melting curve analysis was performed. The RT-qPCR experiments were always run in triplicate. IDO1 was normalised to the geometric means of two HPRT1 reference gene, using the ΔCt method. Within-group comparisons were normalized to one control sample, using the ΔΔCt method.
The procedure under “Induction of IDO1 in THP-1 cells” was followed such that the final concentrations set out in Table 1 were obtained.
Following RNA extraction and quantification of gene expression by RT-qPRC, as described above, induction of IDO1 gene expression using Samples 1 to 6 was investigated.

The test system of data set [5] is ovarian (SK-OV-3) cancer cell line. The note with it: cited from earlier work.
For data set [6], the system named is CNS (XF498) cancer cell line. The note with it: cited from earlier work.
Data set [7] concerns collagen-induced arthritis mouse model. The experiment in a line: Treatment of collagen-induced arthritis in vivo. The note with it: DBA/1 mice, 10 mg/kg for 4 days from arthritis onset, scores monitored 10 days, vs vehicle. The method, then: DBA/1 mice were immunized with bovine type II collagen emulsified in complete Freund's adjuvant. The mice were treated with psammaplin A (10 mg/kg) for 4 days, starting on the day of arthritis onset. Treatment was then stopped. Negative controls received vehicle alone. Clinical scores were monitored for 10 days following onset of arthritis. A clinical scoring system was used as follows. Arthritis severity was scored by an experienced non-blinded investigator as follows: 0=normal, 1=slight swelling and/or erythema, 2=pronounced swelling, 3=ankylosis. All four limbs were scored, giving a maximum possible score of 12 per animal.
The procedure under “Treatment of collagen-induced arthritis in vivo” was followed.
Disease severity was evaluated daily and the mean clinical score of each treatment group was determined. The data points on the graph in FIG. 2 are the mean±SEM of the mice in each treatment.

Data set [8] has as its system methicillin-resistant Staphylococcus aureus (MRSA). The note with it: gram-positive bacteria, in particular MRSA; cited from earlier work.
Data set [9] relates to colon (HCT15) cancer cell line. The following applies: cited from earlier work.

Sequence of hepatitis C virus NS3 helicase (P27958 1027-1657): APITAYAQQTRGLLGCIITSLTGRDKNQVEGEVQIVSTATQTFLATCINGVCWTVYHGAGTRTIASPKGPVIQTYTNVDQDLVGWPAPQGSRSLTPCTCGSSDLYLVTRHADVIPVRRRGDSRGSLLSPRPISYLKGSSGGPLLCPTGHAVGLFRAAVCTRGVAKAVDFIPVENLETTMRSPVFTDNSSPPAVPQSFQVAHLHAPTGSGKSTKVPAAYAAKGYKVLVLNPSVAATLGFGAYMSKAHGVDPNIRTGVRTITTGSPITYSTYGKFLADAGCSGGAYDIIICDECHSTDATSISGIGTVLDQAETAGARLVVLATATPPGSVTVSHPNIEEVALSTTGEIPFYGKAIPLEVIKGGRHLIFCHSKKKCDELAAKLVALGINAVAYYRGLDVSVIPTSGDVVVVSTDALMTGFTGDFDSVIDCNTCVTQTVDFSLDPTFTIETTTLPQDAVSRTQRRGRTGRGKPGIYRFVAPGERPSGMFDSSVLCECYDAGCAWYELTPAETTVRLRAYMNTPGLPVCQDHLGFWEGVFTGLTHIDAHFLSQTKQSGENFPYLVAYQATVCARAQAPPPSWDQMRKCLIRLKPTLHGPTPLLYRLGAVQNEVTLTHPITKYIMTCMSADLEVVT

Take `O=C(NCCSSCCNC(=O)/C(Cc1ccc(O)c(Br)c1)=N/O)/C(Cc1ccc(O)c(Br)c1)=N/O` [psammaplin A]: in data set [1], the “NS3 ATPase activity inhibition” value was “inhibits NS3 helicase and ATPase activities”. Further, the “NS3 helicase activity inhibition” value in [1] (non-competitive) is reported as “inhibits NS3 helicase”. Moreover, the cytotoxicity entry in [2], in [3], in data set [5], in [6] and in data set [9] was “significant cytotoxicity” in each case. Also, the “frequencies of CD4+FoxP3+ Tregs (FACS)” value with naïve CD4+ CD25− T cells (co-culture with mitomycin C treated APCs plus IL-2, TGFβ and anti-CD3, 72 h, vs control (nil)) was “increased in a dose-dependent manner”. For the same molecule, the “relative expression of the Foxp3 gene (RT-qPCR)” value with naïve CD4+ CD25− T cells (normalized to HPRT, relative to vehicle group (nil)) was “increased in a dose-dependent manner”. The “IDO1 expression (fold change)” value in data set [4] (0.05 micromolar) was 0.9 fold change; in data set [4] (0.1 micromolar), 0.6 fold change; in [4] (1 micromolar), 0.9 fold change; in data set [4] (3 micromolar), 4.5 fold change; in data set [4] (5 micromolar) it was 20 fold change. In addition, the “increase of IDO1 gene expression (maximum)” value in data set [4] (psammaplin A alone, highest level at 5 micromolar) was “up to 20 fold”. Also, the “disease severity (mean clinical score)” value in data set [7] was “successful in reducing disease severity”. Also, the antimicrobial effect entry in [8] was “antimicrobial effect”.

The values above are taken from patent US20210299069A1, “PSAMMAPLIN A FOR MODULATING IDO EXPRESSION” (IDOGEN AB, priority 2016, published 2021).
